Results on 5 molecules are retold here after article PMC11240139, “Exploring the antitumor potential of novel quinoline derivatives via tubulin polymerization inhibition in breast cancer; design, synthesis and molecular docking” (RSC Advances, 2024).

Each structure is given as a SMILES string.

The target in one assay is T1, tubulin (Sus scrofa, UniProt P02550+P02554).
T1 construct: purchased Cytoskeleton, USA
Also on record: method as in PMID 33203182, PMID 36893547, PMID 33730937, PMID 30525584, PMID 30530194. Conditions: Fig. 4; read-out: tubulin inhibition IC50; cited from earlier work.

For assay [1], the system named is MDA-MB-231 cells. The assay is described as follows: Cell apoptosis analysis (annexin V-FITC/PI). It is filed as cell-based. The settings on record: MDA-MB-231, IC50 dose, 24 h. The procedure:
Annexin-V-FITC Apoptosis Detection Kit (Biovision, USA) was used to determine apoptotic cells according to manufacturer's instructions. Briefly, MDA-MB 231 cells (2 × 10^5 cells) were seeded in 6-well plates and cultured for 24 h. […] Cells were collected, washed with PBS and centrifuged. The cells were re-suspended in 500 μL of 1× binding buffer. 5 μL of annexin V-FITC and 5 μL of propidium iodide (PI […]) were added and the cells were incubated in the dark at room temperature for 5 min. The fluorescence of the stained cells was analyzed by flow cytometry using FACSCalibur (BD Biosciences, Mountain View, CA). The data were analyzed using the CellQuest software (BD Biosciences).[53,54]

The subject of assay [2] is MDA-MB-231 cells. Briefly: Cell cycle analysis by flow cytometry (PI). It is filed as cell-based. Conditions: MDA-MB-231, IC50 dose, 24 h; control 10.42%. The procedure:
Propidium Iodide Flow Cytometry Kit for Cell Cycle Analysis (Abcam) was used according to manufacturer's instructions. Briefly, MDA-MB 231 cells (2 × 10^5 cells) were seeded in 6-well plates and cultured for 24 h. […] Cells were collected, washed with PBS and centrifuged. Subsequently, the cells were re-suspended and fixed in 66% ethanol on ice for at least 2 h. The cells were stained with a working solution containing propidium iodide (PI) in the dark at 37 °C for 30 min. DNA content of the cells were measured by flow cytometry using FACSCalibur (BD Biosciences, Mountain View, CA). The data were analyzed using the CellQuest software (BD Biosciences).[21]

By IC50 is commonly meant the concentration that gives 50% inhibition.

T1 sequence (P02554 whole entry): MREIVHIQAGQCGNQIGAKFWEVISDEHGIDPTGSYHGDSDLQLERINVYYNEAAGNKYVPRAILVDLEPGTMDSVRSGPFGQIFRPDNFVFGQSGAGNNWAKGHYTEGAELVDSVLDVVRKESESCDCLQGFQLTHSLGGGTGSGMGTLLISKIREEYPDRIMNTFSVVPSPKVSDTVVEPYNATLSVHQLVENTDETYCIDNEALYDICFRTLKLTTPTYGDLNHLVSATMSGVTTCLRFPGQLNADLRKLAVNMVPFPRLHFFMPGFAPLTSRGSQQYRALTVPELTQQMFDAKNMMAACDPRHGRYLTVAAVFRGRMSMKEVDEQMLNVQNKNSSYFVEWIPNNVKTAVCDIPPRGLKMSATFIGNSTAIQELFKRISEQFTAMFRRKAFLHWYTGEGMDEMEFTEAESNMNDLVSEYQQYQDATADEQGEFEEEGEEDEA
T1 sequence (P02550 whole entry): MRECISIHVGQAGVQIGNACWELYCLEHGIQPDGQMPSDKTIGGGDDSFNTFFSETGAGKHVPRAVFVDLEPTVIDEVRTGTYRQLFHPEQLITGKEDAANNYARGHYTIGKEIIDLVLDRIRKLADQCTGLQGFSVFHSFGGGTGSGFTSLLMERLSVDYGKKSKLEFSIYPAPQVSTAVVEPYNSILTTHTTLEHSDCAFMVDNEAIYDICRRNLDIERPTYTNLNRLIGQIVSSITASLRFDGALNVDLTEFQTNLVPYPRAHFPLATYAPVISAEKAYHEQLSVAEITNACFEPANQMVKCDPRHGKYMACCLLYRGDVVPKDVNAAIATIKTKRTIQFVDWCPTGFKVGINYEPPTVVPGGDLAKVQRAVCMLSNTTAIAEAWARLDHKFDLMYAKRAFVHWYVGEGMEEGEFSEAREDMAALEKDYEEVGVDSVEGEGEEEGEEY

As for `COc1ccc(OC)c(/C=C/C(=O)c2ccc(NC(=O)COc3cccc4cccnc34)cc2)c1` [X], at tubulin, the IC50 was 5.32 µM.

Regarding `COc1cc2c(c(OC)c1OC)-c1ccc(OC)c(=O)cc1[C@@H](NC(C)=O)CC2` [Colchicine, colchicine], in the assay with MDA-MB-231 cells [1], the “Early Apoptosis (%)” value amounted to 19.19 ± 0.87%, the “Late Apoptosis (%)” value is on record as 6.62 ± 0.75%, the “Necrosis (%)” value was 11.41 ± 2.8% and the “Total Cell Death (%)” value is recorded as 37.22 ± 2.8%. Besides, the “Necrosis (%)” value in the assay on MDA-MB-231 cells [1] (listed as colchicine) came to 11.41%. Moreover, the “cells population at G2 and M phases” value in the assay with MDA-MB-231 cells [2] was 26.51%.

As for `COc1cc(C(=O)N/N=C/c2cc3ccc(OC(C)C)cc3nc2OC)cc(OC)c1OC` [IX], the IC50 on tubulin is 1.32 µM.

Regarding `C=C(c1ccc2c(ccn2C)c1)c1cc(C)nc2ccccc12` [XIII], the IC50 at tubulin is 2.09 µM.

`COc1ccc2nc(Cl)c(C3CC(c4ccc(N)cc4)=NN3c3ccccc3)cc2c1` (stereo not shown) [XIV]: the IC50 at tubulin is 0.00911 µM.
